Patent US6472351B1, “Herbicide” (Barrier Biotech Limited, priority 1998, dated 2002)

Test system: ragwort
Experiment: Replicated field trials 1997, ragwort control 0-10 score versus 2,4-D (Example 3)
Format: in vivo, Senecio Jacobaea
Settings: for 0-10 Score, 0 = No Control; T1 + 42 / 0-10 Score, 0 = No Control; T1 + 14 / 0-10 Score, 0 = No Control; T1 + 28 / 0-10 Score, 0 = No Control; T1 + 1 / 0-10 Score, 0 = No Control; T1 + 7: l/ha 2,4-D standard; for 0-10 Score, 0 = No Control; T1 + 42: scored 02/09/97; for 0-10 Score, 0 = No Control; T1 + 28: scored 19/08/97
Description: In 1997 properly replicated field evaluations of the efficacy of the composition according to the invention as a herbicide were carried out and 3 trial sites were located where the composition was tested against the standard product, 2, 4-D applied at a dose of 3.0 l/ha to individual plants. The trials were designed as a randomised complete block but within each “plot” area, 10 ragwort plants for each growth stage (rosette & flowing stems) were tagged with numbered markers and these were treated with the appropriate compound. […] This method reduced the risk of excessive run-off if eight squirts had been applied in a single application. […] As with the larger plants in the laboratory tests, some degree of re-growth was noted on a few of the treated plants. After the last assessments had been made, some of these plants were retreated with a second application of BH 99 and the effect was compared with untreated plants after a further 4 weeks which data is presented in the results section below.
In all evaluations the composition BH 99 was used comprising:
was applied to plants using the same equipment. The ready-mixed formulated product was contained in a 5 liter polyethylene bottle to which was fitted with a Frapak CHS-5A trigger sprayer and dip tube. This equipment delivers 2.4 mls of spray for each full squeeze of the trigger and provides a very convenient method of application.
In the replicated field trials in 1997, the 2, 4-D treatments were applied using a Hardy (backpack) small plot sprayer fitted with a lance carrying a single F110-03 nozzle. Individual plants were sprayed at a forward speed of 1.6 m/s and a pressure of 2 bar to give an application volume of 200 l/ha. Dose of 2, 4-D applied by this method was 3.0 l/ha.
Replicated Field Trials, 1997: The efficacy of BH 99 was tested against ragwort at the rosette and flowering stages at Shropham and Barnham sites but only against the rosette stage at Hockham since no flowering stems were presented.

[1] = Barnham, Flower, applied T1 23/07/97
[2] = Barnham, Rosette, applied T1 23/07/97
[3] = Hockham, Rosette, applied T1 25/07/97
[4] = flowering stage, standard at 3.0 l/ha, mean of n = 2 sites, 0-10 score
[5] = rosette stage, standard at 3.0 l/ha, mean of n = 3 sites, 0-10 score

**Q.** Which “Time until full activity manifest” value (3.0 l/ha, days after application) does the source give for O=C(O)COc1ccc(Cl)cc1Cl [2,4-D, 2,4-D] here?
**A.** Its value is 42 days.

**Q.** What about the “0-10 Score, 0 = No Control; T1 + 42” value [1] of the same compound?
**A.** Its value is 9.4.

**Q.** And the “0-10 Score, 0 = No Control; T1 + 14” value (Barnham, Flower, applied T1 23/07/97, scored 08/08/97)?
**A.** The value was 7.3.

**Q.** What about the “0-10 Score, 0 = No Control; T1 + 28” value [1] of the same compound?
**A.** Its value is 8.9.

**Q.** What about the “0-10 Score, 0 = No Control; T1 + 1” value (Barnham, Flower, applied T1 23/07/97, scored 24/07/97) of the same compound?
**A.** Its value is 0.3.

**Q.** And the “0-10 Score, 0 = No Control; T1 + 7” value (Barnham, Flower, applied T1 23/07/97, scored 30/07/97)?
**A.** The value was 1.

**Q.** And the “0-10 Score, 0 = No Control; T1 + 42” value [2]?
**A.** Its value is 9.9.

**Q.** And the “0-10 Score, 0 = No Control; T1 + 14” value (Barnham, Rosette, applied T1 23/07/97, scored 08/08/97)?
**A.** The value was 4.8.

**Q.** And the “0-10 Score, 0 = No Control; T1 + 28” value [2]?
**A.** Its value is 9.1.

**Q.** What about the “0-10 Score, 0 = No Control; T1 + 1” value (Barnham, Rosette, applied T1 23/07/97, scored 24/07/97) of the same compound?
**A.** Its value is 0.1.

**Q.** And the “0-10 Score, 0 = No Control; T1 + 7” value (Barnham, Rosette, applied T1 23/07/97, scored 30/07/97)?
**A.** Its value is 0.8.

**Q.** And the “0-10 Score, 0 = No Control; T1 + 7” value (Hockham, Rosette, applied T1 25/07/97, scored 01/08/97)?
**A.** Its value is 0.4.

**Q.** What about the “0-10 Score, 0 = No Control; T1 + 42” value [3] of the same compound?
**A.** The value was 9.8.

**Q.** And the “0-10 Score, 0 = No Control; T1 + 14” value (Hockham, Rosette, applied T1 25/07/97, scored 07/08/97)?
**A.** The value was 0.8.

**Q.** What about the “0-10 Score, 0 = No Control; T1 + 28” value [3] of the same compound?
**A.** Its value is 5.2.

**Q.** And the “0-10 Score, 0 = No Control; T1 + 1” value (Hockham, Rosette, applied T1 25/07/97, scored 26/07/97)?
**A.** Its value is 0.1.

**Q.** What about the “Mean Score for Ragwort Control When Treated at the Flowering Stage, 1 DAT” value [4] of the same compound?
**A.** The value was 0.3.

**Q.** What about the “Mean Score for Ragwort Control When Treated at the Flowering Stage, 7 DAT” value [4] of the same compound?
**A.** The value was 0.8.

**Q.** And the “Mean Score for Ragwort Control When Treated at the Flowering Stage, 14 DAT” value [4]?
**A.** The value was 4.9.

**Q.** And the “Mean Score for Ragwort Control When Treated at the Flowering Stage, 28 DAT” value [4]?
**A.** Its value is 7.4.

**Q.** And the “Mean Score for Ragwort Control When Treated at the Flowering Stage, 42 DAT” value [4]?
**A.** Its value is 8.4.

**Q.** And the “Mean Score for Ragwort Control When Treated at the Rossette Stage, 1 DAT” value [5]?
**A.** The value was 0.1.

**Q.** What about the “Mean Score for Ragwort Control When Treated at the Rossette Stage, 7 DAT” value [5] of the same compound?
**A.** The value was 0.5.

**Q.** And the “Mean Score for Ragwort Control When Treated at the Rossette Stage, 14 DAT” value [5]?
**A.** The value was 2.1.

**Q.** And the “Mean Score for Ragwort Control When Treated at the Rossette Stage, 28 DAT” value [5]?
**A.** Its value is 6.9.

**Q.** And the “Mean Score for Ragwort Control When Treated at the Rossette Stage, 42 DAT” value [5]?
**A.** The value was 9.4.
